Data from ChEMBL document CHEMBL1149227, “The discovery of structurally novel CCR1 antagonists derived from a hydroxyethylene peptide isostere template” (Bioorg Med Chem Lett, 2004).

What follows are compounds tested on THP-1 (assay: Inhibition of CCL5 induced chemotaxis in THP-1 cells). Conditions: Homo sapiens.
Assay type: functional, cell-based
CNC(=O)[C@H](CC(C)C)C[C@H](O)[C@H](CC1CCCCC1)NC(=O)c1cnc2ccccc2c1 gave an IC50 of 0.63 µM. For C=C(Cl)C[C@H](C[C@H](O)[C@H](CC1CCCCC1)NC(=O)c1cc2cc(Cl)ccc2[nH]1)C(=O)NC, the IC50 was > 25 µM.

What follows are compounds tested on THP-1 (assay: (§1) Inhibition of CCL3 induced chemotaxis in THP-1 cells; inactive at a concentration of 25 uM). Conditions: Homo sapiens.
Assay type: functional, cell-based
CC[C@H](C)[C@H](NC(=O)c1cnc2ccccc2c1)[C@@H](O)C[C@@H](CC(C)C)C(=O)NC was tested, and the IC50 was < 50 µM. With CNC(=O)[C@H](CC(C)C)C[C@@H](O)[C@@H](CC1CCCCC1)NC(=O)c1cnc2ccccc2c1 the IC50 was < 50 µM. For CC(C)C[C@H](C[C@H](O)[C@H](CC1CCCCC1)NC(=O)c1cnc2ccccc2c1)C(=O)N(C)C, the IC50 was < 50 µM. With CNC(=O)[C@@H](CC(C)C)C[C@@H](O)[C@@H](CC1CCCCC1)NC(=O)c1cnc2ccccc2c1 the IC50 was < 50 µM. In the case of CNC(=O)[C@@H](CC(C)C)C[C@H](O)[C@@H](CC1CCCCC1)NC(=O)c1cnc2ccccc2c1, the IC50 is reported as < 50 µM. CNC(=O)[C@H](CC(C)C)C[C@@H](O)[C@H](CC1CCCCC1)NC(=O)c1cnc2ccccc2c1 was tested, and the IC50 was > 25 µM. With CNC(=O)[C@H](CC(C)C)C[C@H](O)[C@H](CC1CCCCC1)NS(=O)(=O)c1cnc2ccccc2c1 the IC50 was < 50 µM.

What follows are compounds tested against T1, Renin (Rattus norvegicus, UniProt P08424) (assay: Inhibitory activity of compound against renin was determined). Conditions: not given.
T1 sequence (P08424 whole entry): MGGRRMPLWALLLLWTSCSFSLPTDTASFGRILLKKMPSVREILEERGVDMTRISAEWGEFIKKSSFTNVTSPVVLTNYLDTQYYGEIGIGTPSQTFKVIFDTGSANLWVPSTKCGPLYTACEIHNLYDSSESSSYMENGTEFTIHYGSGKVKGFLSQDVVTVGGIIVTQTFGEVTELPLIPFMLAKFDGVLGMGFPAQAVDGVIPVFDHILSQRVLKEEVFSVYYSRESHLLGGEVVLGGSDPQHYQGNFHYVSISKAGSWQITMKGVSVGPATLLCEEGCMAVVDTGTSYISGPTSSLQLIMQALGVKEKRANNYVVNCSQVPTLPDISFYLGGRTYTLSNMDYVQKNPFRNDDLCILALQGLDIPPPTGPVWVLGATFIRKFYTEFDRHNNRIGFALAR
CNC(=O)[C@H](CC(C)C)C[C@H](O)[C@H](CC1CCCCC1)NC(=O)c1cnc2ccccc2c1 was tested, and the IC50 was > 10 µM. In the case of C=C(Cl)C[C@H](C[C@H](O)[C@H](CC1CCCCC1)NC(=O)c1cc2cc(Cl)ccc2[nH]1)C(=O)NC, the IC50 is reported as 0.041 µM.

The compounds below were run on THP-1 (assay: Inhibition of CCL3 induced chemotaxis in THP-1 cells). Conditions: Homo sapiens.
Assay type: functional, cell-based
CC(C)C[C@H](C[C@H](O)[C@H](CC1CCCCC1)NC(=O)c1cnc2ccccc2c1)C(N)=O was tested, and the IC50 was 6.3 µM. CNC(=O)[C@@H](CC(C)C)C[C@H](O)[C@H](CC1CCCCC1)NC(=O)c1cnc2ccccc2c1 showed an IC50 of 12 µM. Compound CNC(=O)[C@@H](CC(C)C)C[C@@H](O)[C@H](CC1CCCCC1)NC(=O)c1cnc2ccccc2c1 has an IC50 of 7.7 µM.

What follows are compounds tested against T2, C-C chemokine receptor type 1 (Homo sapiens, UniProt P32246) (assay: Inhibition of CCL3 binding to C-C chemokine receptor type 1). Conditions: not given.
T2 sequence (P32246 whole entry): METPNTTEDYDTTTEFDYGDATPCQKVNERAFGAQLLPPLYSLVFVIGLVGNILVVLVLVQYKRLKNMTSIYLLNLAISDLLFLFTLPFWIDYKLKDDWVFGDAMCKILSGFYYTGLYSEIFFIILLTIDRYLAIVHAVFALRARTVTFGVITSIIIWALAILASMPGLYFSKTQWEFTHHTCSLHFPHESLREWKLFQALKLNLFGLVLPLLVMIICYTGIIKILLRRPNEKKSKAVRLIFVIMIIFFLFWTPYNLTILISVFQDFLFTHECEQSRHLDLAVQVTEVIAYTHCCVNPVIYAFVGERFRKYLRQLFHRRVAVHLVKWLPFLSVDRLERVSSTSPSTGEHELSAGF
Compound CC(C)C[C@H](C[C@H](O)[C@H](CC1CCCCC1)NC(=O)c1cnc2ccccc2c1)C(N)=O has an IC50 of 8 µM. CNC(=O)[C@@H](CC(C)C)C[C@@H](O)[C@@H](CC1CCCCC1)NC(=O)c1cnc2ccccc2c1 was tested, and the IC50 was 15 µM. CNC(=O)[C@H](CC(C)C)C[C@H](O)[C@H](CC(C)C)NC(=O)c1cnc2ccccc2c1 showed an IC50 of 11.8 µM. With CNC(=O)[C@H](CC(C)C)C[C@H](O)[C@H](Cc1ccccc1)NC(=O)c1cnc2ccccc2c1 the IC50 was 0.65 µM. In the case of CNC(=O)[C@H](CC(C)C)C[C@H](O)[C@H](CC1CCCCC1)NC(=O)c1cnc2ccccc2c1, the IC50 is reported as 2.3 µM. In the case of C=C(Cl)C[C@H](C[C@H](O)[C@H](CC1CCCCC1)NC(=O)c1cc2cc(Cl)ccc2[nH]1)C(=O)NC, the IC50 is reported as > 32 µM. CNC(=O)[C@@H](CC(C)C)C[C@H](O)[C@H](CC1CCCCC1)NC(=O)c1cnc2ccccc2c1 showed an IC50 of 30 µM.

Each compound was assayed on THP-1 (assay: as §1). Conditions: Homo sapiens.
Assay type: functional
With CNC(=O)[C@H](CC(C)C)C[C@H](O)[C@@H](CC1CCCCC1)NC(=O)c1cnc2ccccc2c1 the inhibition at 25 µM was < 50%.
